Measured values: ChEMBL document CHEMBL1201861, “Genomics of Drug Sensitity in Cancer screening data, Wellcome Trust Sanger Institute”

Assays:
Test in all cases: cells
QIMR-WIL = type: functional, cell-based; conditions: Homo sapiens;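 note: growth inhibition of QIMR-WIL cells, read out with a cell viability assay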
Description: SANGER: Inhibition of human QIMR-WIL cell growth in a cell viability assay.

Detroit 562 = type: functional, cell-based; conditions: Homo sapiens;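 note: growth inhibition of human Detroit 562 cells, read out by a cell viability assay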
Description: SANGER: Inhibition of human Detroit562 cell growth in a cell viability assay.

U-87 MG = type: functional, cell-based, U-87MG ATCC; conditions: Homo sapiens;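 note: growth inhibition of the cells measured with a viability assay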
Description: SANGER: Inhibition of human U-87-MG cell growth in a cell viability assay.

LB2241-RCC = type: functional, cell-based; conditions: Homo sapiens;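 note: cell viability assay measuring how strongly the cultured human renal carcinoma line is prevented from growing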
Description: SANGER: Inhibition of human LB2241-RCC cell growth in a cell viability assay.

SK-LMS-1 = type: functional, cell-based; conditions: Homo sapiens;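 note: growth inhibition of human SK-LMS-1 cells, read out with a cell viability assay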
Description: SANGER: Inhibition of human SK-LMS-1 cell growth in a cell viability assay.

RKO = type: functional, cell-based; conditions: Homo sapiens;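 note: growth inhibition of human RKO cells, read out with a cell viability assay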
Description: SANGER: Inhibition of human RKO cell growth in a cell viability assay.

RS4-11 = type: functional, cell-based; conditions: Homo sapiens;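 note: growth inhibition of RS4-11 cells, read out by a cell viability assay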
Description: SANGER: Inhibition of human RS4-11 cell growth in a cell viability assay.

NCI-H1304 = type: functional, cell-based; conditions: Homo sapiens;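 note: growth inhibition of the cancer cell line, measured in a cell viability assay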
Description: SANGER: Inhibition of human NCI-H1304 cell growth in a cell viability assay.

DOHH-2 = type: functional, cell-based; conditions: Homo sapiens;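 note: growth inhibition of human DOHH-2 cells, read out with a cell viability assay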
Description: SANGER: Inhibition of human DOHH-2 cell growth in a cell viability assay.

OS-RC-2 = type: functional, cell-based; conditions: Homo sapiens;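 note: growth inhibition of human OS-RC-2 cells, measured by a cell viability assay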
Description: SANGER: Inhibition of human OS-RC-2 cell growth in a cell viability assay.

NY = type: functional, cell-based; conditions: Homo sapiens
Description: SANGER: Inhibition of human NY cell growth in a cell viability assay.

UACC-257 = type: functional, cell-based; conditions: Homo sapiens
Description: SANGER: Inhibition of human UACC-257 cell growth in a cell viability assay.

SCC-15 = type: functional, cell-based; conditions: Homo sapiens;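 note: growth inhibition of SCC-15 cells, read out with a cell viability assay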
Description: SANGER: Inhibition of human SCC-15 cell growth in a cell viability assay.

HH = type: functional, cell-based; conditions: Homo sapiens
Description: SANGER: Inhibition of human HH cell growth in a cell viability assay.

TE-9 = type: functional, cell-based; conditions: Homo sapiens;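 note: cell growth inhibition, measured with a cell viability readout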
Description: SANGER: Inhibition of human TE-9 cell growth in a cell viability assay.

SH-4 = type: functional, cell-based; conditions: Homo sapiens;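 note: growth inhibition of SH-4 cells, read out with a cell viability assay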
Description: SANGER: Inhibition of human SH-4 cell growth in a cell viability assay.

HCE-4 = type: functional, cell-based; conditions: Homo sapiens;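 note: cell viability assay measuring inhibition of growth in the human HCE-4 cell line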
Description: SANGER: Inhibition of human HCE-4 cell growth in a cell viability assay.

DB = type: functional, cell-based; conditions: Homo sapiens
Description: SANGER: Inhibition of human DB cell growth in a cell viability assay.

SF-539 = type: functional, cell-based; conditions: Homo sapiens;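 note: Read-out is a cell viability assay, with IC50 reflecting inhibition of cell growth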
Description: SANGER: Inhibition of human SF539 cell growth in a cell viability assay.

OE19 = type: functional, cell-based; conditions: Homo sapiens;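 note: growth inhibition of OE19 cells, measured through a cell viability read-out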
Description: SANGER: Inhibition of human OE19 cell growth in a cell viability assay.

GR-ST = type: functional, cell-based; conditions: Homo sapiens
Description: SANGER: Inhibition of human GR-ST cell growth in a cell viability assay.

Ramos-2G6-4C10 = type: functional, cell-based; conditions: Homo sapiens;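 note: growth inhibition of the cell line, measured by a cell viability read-out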
Description: SANGER: Inhibition of human Ramos-2G6-4C10 cell growth in a cell viability assay.

LS-123 = type: functional, cell-based; conditions: Homo sapiens
Description: SANGER: Inhibition of human LS-123 cell growth in a cell viability assay.

NCI-H2228 = type: functional, cell-based; conditions: Homo sapiens;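 note: growth inhibition of human NCI-H2228 cells, read out by a cell viability assay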
Description: SANGER: Inhibition of human NCI-H2228 cell growth in a cell viability assay.

MZ2-MEL = type: functional, cell-based; conditions: Homo sapiens;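 note: growth inhibition of MZ2-MEL cells read out with a cell viability assay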
Description: SANGER: Inhibition of human MZ2-MEL cell growth in a cell viability assay.

SW 954 = type: functional, cell-based; conditions: Homo sapiens;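 note: growth inhibition of SW954 human cancer cells, read out as cell viability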
Description: SANGER: Inhibition of human SW954 cell growth in a cell viability assay.

EW-13 = type: functional, cell-based; conditions: Homo sapiens;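 note: growth inhibition of EW-13 cells, read out with a cell viability assay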
Description: SANGER: Inhibition of human EW-13 cell growth in a cell viability assay.

TE-6 = type: functional, cell-based; conditions: Homo sapiens;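 note: growth inhibition of TE-6 cells, read out with a cell viability assay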
Description: SANGER: Inhibition of human TE-6 cell growth in a cell viability assay.

CAL-12T = type: functional, cell-based, Homo sapiens;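 note: growth inhibition of human CAL-12T cells, read out with a cell viability assay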
Description: SANGER: Inhibition of human CAL-12T cell growth in a cell viability assay.

ETK-1 = type: functional, cell-based; conditions: Homo sapiens;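 note: growth inhibition of human ETK-1 cells, read out with a cell viability assay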
Description: SANGER: Inhibition of human ETK-1 cell growth in a cell viability assay.

KNS-81-FD = type: functional, cell-based; conditions: Homo sapiens;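 note: growth inhibition of KNS-81-FD cells, read out with a cell viability assay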
Description: SANGER: Inhibition of human KNS-81-FD cell growth in a cell viability assay.

COLO-792 = type: functional, cell-based; conditions: Homo sapiens
Description: SANGER: Inhibition of human COLO-792 cell growth in a cell viability assay.

SK-N-FI = type: functional, cell-based; conditions: Homo sapiens;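 note: cell viability assay measuring growth inhibition of human SK-N-FI cells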
Description: SANGER: Inhibition of human SK-N-FI cell growth in a cell viability assay.

NOMO-1 = type: functional, cell-based; conditions: Homo sapiens;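 note: growth inhibition of human NOMO-1 cells measured by a cell viability assay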
Description: SANGER: Inhibition of human NOMO-1 cell growth in a cell viability assay.

KG-1 = type: functional, cell-based; conditions: Homo sapiens;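 note: growth inhibition of KG-1 cells, read out by a cell viability assay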
Description: SANGER: Inhibition of human KG-1 cell growth in a cell viability assay.

HT-144 = type: functional, cell-based; conditions: Homo sapiens
Description: SANGER: Inhibition of human HT-144 cell growth in a cell viability assay.

IST-SL1 = type: functional, cell-based; conditions: Homo sapiens;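 note: growth inhibition of human IST-SL1 cells, read out with a cell viability assay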
Description: SANGER: Inhibition of human IST-SL1 cell growth in a cell viability assay.

P30-OHK = type: functional, cell-based; conditions: Homo sapiens;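 note: growth inhibition of the P30-OHK cell line, read out with a cell viability assay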
Description: SANGER: Inhibition of human P30-OHK cell growth in a cell viability assay.

CAS-1 = type: functional, cell-based; conditions: Homo sapiens;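 note: growth inhibition of CAS-1 cells, measured with a cell viability assay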
Description: SANGER: Inhibition of human CAS-1 cell growth in a cell viability assay.

NEC8 = type: functional, cell-based; conditions: Homo sapiens;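 note: growth inhibition of human NEC8 cells, read out by a cell viability assay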
Description: SANGER: Inhibition of human NEC8 cell growth in a cell viability assay.

GB-1 = type: functional, cell-based; conditions: Homo sapiens;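 note: growth of GB-1 cells judged by a viability assay, IC50 marks the concentration inhibiting growth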
Description: SANGER: Inhibition of human GB-1 cell growth in a cell viability assay.

MOLT-4 = type: functional, cell-based; conditions: Homo sapiens;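 note: growth inhibition of MOLT-4 cells, determined with a cell viability readout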
Description: SANGER: Inhibition of human MOLT-4 cell growth in a cell viability assay.

769-P = type: functional, cell-based; conditions: Homo sapiens
Description: SANGER: Inhibition of human 769-P cell growth in a cell viability assay.

OCI-AML2 = type: functional, cell-based; conditions: Homo sapiens;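 note: growth inhibition of OCI-AML2 cells, read out with a cell viability assay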
Description: SANGER: Inhibition of human OCI-AML2 cell growth in a cell viability assay.

SNB-75 = type: functional, cell-based; conditions: Homo sapiens;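 note: cell viability assay measuring growth inhibition of human SNB-75 cells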
Description: SANGER: Inhibition of human SNB75 cell growth in a cell viability assay.

ES5 = type: functional, cell-based; conditions: Homo sapiens;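 note: growth inhibition of human ES5 cells, read out by a cell viability assay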
Description: SANGER: Inhibition of human ES5 cell growth in a cell viability assay.

NCI-H1155 = type: functional, cell-based; conditions: Homo sapiens;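 note: cell growth inhibition measured by a viability assay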
Description: SANGER: Inhibition of human NCI-H1155 cell growth in a cell viability assay.

C-33-A = type: functional, cell-based; conditions: Homo sapiens;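 note: cell viability assay measuring growth inhibition of C-33-A cells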
Description: SANGER: Inhibition of human C-33-A cell growth in a cell viability assay.

GAK = type: functional, cell-based; conditions: Homo sapiens;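 note: cell growth inhibition read out by a cell viability assay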
Description: SANGER: Inhibition of human GAK cell growth in a cell viability assay.

LB2518-MEL = type: functional, cell-based; conditions: Homo sapiens;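 note: growth inhibition of human LB2518-MEL cells, measured with a cell viability assay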
Description: SANGER: Inhibition of human LB2518-MEL cell growth in a cell viability assay.

HCE-T = type: functional, cell-based; conditions: Homo sapiens;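 note: cell viability assay read-out, reporting inhibition of HCE-T cell growth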
Description: SANGER: Inhibition of human HCE-T cell growth in a cell viability assay.

HD-MY-Z = type: functional, cell-based; conditions: Homo sapiens;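 note: growth inhibition of HD-MY-Z cells, read out with a cell viability assay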
Description: SANGER: Inhibition of human HD-MY-Z cell growth in a cell viability assay.

NCI-H1395 = type: functional, cell-based; conditions: Homo sapiens;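 note: cell viability assay read-out quantifying reduced proliferation of human NCI-H1395 cells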
Description: SANGER: Inhibition of human NCI-H1395 cell growth in a cell viability assay.

KM12 = type: functional, cell-based; conditions: Homo sapiens;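 note: KM12 cell growth inhibition, read out with a cell viability assay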
Description: SANGER: Inhibition of human KM12 cell growth in a cell viability assay.

MFM-223 = type: functional, cell-based; conditions: Homo sapiens
Description: SANGER: Inhibition of human MFM-223 cell growth in a cell viability assay.

ML-2 = type: functional, cell-based; conditions: Homo sapiens;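 note: growth inhibition of ML-2 cells, measured with a cell viability readout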
Description: SANGER: Inhibition of human ML-2 cell growth in a cell viability assay.

KU812 cell line = type: functional, cell-based; conditions: Homo sapiens;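 note: growth inhibition of KU812 cells, read out with a cell viability assay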
Description: SANGER: Inhibition of human KU812 cell growth in a cell viability assay.

EOL1 = type: functional, cell-based; conditions: Homo sapiens;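 note: growth inhibition of EoL-1 cells, read out by a cell viability assay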
Description: SANGER: Inhibition of human EoL-1-cell cell growth in a cell viability assay.

KARPAS-45 = type: functional, cell-based; conditions: Homo sapiens;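 note: inhibition of cell line growth, read out through a viability assay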
Description: SANGER: Inhibition of human KARPAS-45 cell growth in a cell viability assay.

SNU-5 = type: functional, cell-based; conditions: Homo sapiens;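 note: cell viability readout used to measure growth inhibition in human NCI-SNU-5 cells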
Description: SANGER: Inhibition of human NCI-SNU-5 cell growth in a cell viability assay.

CTV-1 = type: functional, cell-based; conditions: Homo sapiens
Description: SANGER: Inhibition of human CTV-1 cell growth in a cell viability assay.

O=c1cc(N2CCOCC2)oc2c(-c3cccc4c3sc3ccccc34)cccc12
IC50 (QIMR-WIL): > 2000 nM
IC50 (Detroit 562): > 2000 nM
IC50 (U-87 MG): > 2000 nM
IC50 (LB2241-RCC): > 2000 nM
IC50 (SK-LMS-1): > 2000 nM
IC50 (RKO): > 2000 nM
IC50 (RS4-11): > 2000 nM
IC50 (NCI-H1304): > 2000 nM
IC50 (DOHH-2): > 2000 nM
IC50 (OS-RC-2): > 2000 nM
IC50 (NY): > 2000 nM
IC50 (UACC-257): > 2000 nM
IC50 (SCC-15): > 2000 nM
IC50 (HH): 1180 nM
IC50 (TE-9): > 2000 nM
IC50 (SH-4): > 2000 nM
IC50 (HCE-4): > 2000 nM
IC50 (DB): > 2000 nM
IC50 (SF-539): > 2000 nM
IC50 (OE19): > 2000 nM
IC50 (GR-ST): > 2000 nM
IC50 (Ramos-2G6-4C10): > 2000 nM
IC50 (LS-123): > 2000 nM
IC50 (NCI-H2228): > 2000 nM
IC50 (MZ2-MEL): > 2000 nM
IC50 (SW 954): > 2000 nM
IC50 (EW-13): > 2000 nM
IC50 (TE-6): > 2000 nM
IC50 (CAL-12T; cal-12t): > 2000 nM
IC50 (ETK-1): > 2000 nM
IC50 (KNS-81-FD): > 2000 nM
IC50 (COLO-792): > 2000 nM
IC50 (SK-N-FI): > 2000 nM
IC50 (NOMO-1): > 2000 nM
IC50 (KG-1): > 2000 nM
IC50 (HT-144): > 2000 nM
IC50 (IST-SL1): > 2000 nM
IC50 (P30-OHK): > 2000 nM
IC50 (CAS-1): > 2000 nM
IC50 (NEC8): 1550 nM
IC50 (GB-1): > 2000 nM
IC50 (MOLT-4): > 2000 nM
IC50 (769-P): > 2000 nM
IC50 (OCI-AML2): > 2000 nM
IC50 (SNB-75): > 2000 nM
IC50 (ES5): > 2000 nM
IC50 (NCI-H1155): > 2000 nM
IC50 (C-33-A): > 2000 nM
IC50 (GAK): > 2000 nM
IC50 (LB2518-MEL): > 2000 nM
IC50 (HCE-T): > 2000 nM
IC50 (HD-MY-Z): > 2000 nM
IC50 (NCI-H1395): > 2000 nM
IC50 (KM12): > 2000 nM
IC50 (MFM-223): > 2000 nM

CCCS(=O)(=O)Nc1ccc(F)c(C(=O)c2c[nH]c3ncc(Cl)cc23)c1F [PLX-4720]
IC50 (QIMR-WIL): > 10000 nM
IC50 (Detroit 562): > 10000 nM
IC50 (U-87 MG): > 10000 nM
IC50 (LB2241-RCC): 7370 nM
IC50 (SK-LMS-1): > 10000 nM
IC50 (RKO): > 10000 nM
IC50 (ML-2): > 10000 nM
IC50 (RS4-11): 9600 nM
IC50 (NCI-H1304): > 10000 nM
IC50 (DOHH-2): > 10000 nM
IC50 (OS-RC-2): > 10000 nM
IC50 (NY): > 10000 nM
IC50 (UACC-257): > 10000 nM
IC50 (SCC-15): > 10000 nM
IC50 (HH): > 10000 nM
IC50 (TE-9): > 10000 nM
IC50 (SH-4): 414 nM
IC50 (HCE-4): > 10000 nM
IC50 (DB): > 10000 nM
IC50 (SF-539): > 10000 nM
IC50 (OE19): > 10000 nM
IC50 (GR-ST): > 10000 nM
IC50 (Ramos-2G6-4C10): > 10000 nM
IC50 (LS-123): > 10000 nM
IC50 (NCI-H2228): > 10000 nM
IC50 (MZ2-MEL): > 10000 nM
IC50 (SW 954): > 10000 nM
IC50 (EW-13): > 10000 nM
IC50 (TE-6): > 10000 nM
IC50 (CAL-12T; Homo sapiens, CAL-12T): > 10000 nM
IC50 (KU812 cell line): > 10000 nM
IC50 (ETK-1): > 10000 nM
IC50 (KNS-81-FD): > 10000 nM
IC50 (EOL1): 142 nM
IC50 (COLO-792): > 10000 nM
IC50 (SK-N-FI): > 10000 nM
IC50 (NOMO-1): > 10000 nM
IC50 (KG-1): 4740 nM
IC50 (HT-144): 363 nM
IC50 (IST-SL1): > 10000 nM
IC50 (P30-OHK): > 10000 nM
IC50 (CAS-1): > 10000 nM
IC50 (NEC8): > 10000 nM
IC50 (KARPAS-45): 2050 nM
IC50 (GB-1): > 10000 nM
IC50 (MOLT-4): > 10000 nM
IC50 (769-P): > 10000 nM
IC50 (OCI-AML2): > 10000 nM
IC50 (SNB-75): > 10000 nM
IC50 (ES5): 6150 nM
IC50 (SNU-5): 2120 nM
IC50 (NCI-H1155): > 10000 nM
IC50 (C-33-A): > 10000 nM
IC50 (GAK): > 10000 nM
IC50 (CTV-1): > 10000 nM
IC50 (LB2518-MEL): > 10000 nM
IC50 (HCE-T): > 10000 nM
IC50 (HD-MY-Z): > 10000 nM
IC50 (NCI-H1395): > 10000 nM
IC50 (KM12): > 10000 nM
IC50 (MFM-223): > 10000 nM
